# Test results published in US11466024B2, “Bicylic compound acting as an inhibitor” (CHIA TAI TIANQING PHARMACEUTICAL GROUP CO., LTD., priority 2017, dated 2022).
# Key:
# RORγ = target: T1, RORγ (Homo sapiens, UniProt P51449); assay: In vitro test for inhibitory activity on RORγ: luciferase reporter cells expressing chimeric Gal4-RORγ receptor; assay type: cell-based; conditions: Gal4 hybrid receptor luciferase reporter, HEK293, 24 hours incubation
# T1 sequence (P51449 97-518): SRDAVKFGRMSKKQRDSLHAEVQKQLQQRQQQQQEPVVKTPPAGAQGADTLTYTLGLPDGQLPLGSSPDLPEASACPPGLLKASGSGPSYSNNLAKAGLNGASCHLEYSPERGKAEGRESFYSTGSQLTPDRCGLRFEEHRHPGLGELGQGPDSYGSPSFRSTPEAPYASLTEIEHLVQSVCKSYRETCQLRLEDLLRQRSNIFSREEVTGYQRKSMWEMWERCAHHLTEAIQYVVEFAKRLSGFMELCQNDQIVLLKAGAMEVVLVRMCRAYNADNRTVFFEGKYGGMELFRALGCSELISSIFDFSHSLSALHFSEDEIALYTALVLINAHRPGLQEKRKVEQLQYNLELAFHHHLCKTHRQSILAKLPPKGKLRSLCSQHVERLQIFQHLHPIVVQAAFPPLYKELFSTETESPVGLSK
# Method: Reporter cells: Reporter cells expressing a chimeric RORγ receptor were used in this experiment. The chimeric RORγ receptor was a RORγ receptor formed by replacing the N-terminal DNA-binding domain of the natural RORγ protein with the DNA-binding domain of the yeast Gal4 protein. The luciferase reporter gene was located at the downstream of the Gal4 activating sequence (UAS).
# Step 1: Reporter cells were prepared into a cell suspension using INDIGO's Cell Recovery Medium (CRM, containing 5% fetal bovine serum treated by activated carbon). The cell suspension was dispensed into a white 96-well culture plate in a volume of 100 μl/well.
# Step 2: Eight concentration gradients were set for each test compound, and the test was conducted twice at each concentration. Prior to the experiment, the main stock solution of the test compound was serially diluted with DMSO, so as to formulate solutions with “1000×-concentration” relative to each of the final test concentrations. Subsequently, the compound was further diluted with the cell recovery medium (CRM, containing 5% fetal bovine serum treated by activated carbon), so as to formulate test working solutions with “2×-concentration”. As per a volume of 100 μl/well, the test working solutions were respectively added to the test wells in which the reporter cells were added in advance, so as to obtain the desired final test concentrations. The residual concentrations of DMSO in all test wells were 0.1%. The test plate was incubated in a cell incubator for 24 hours. Conditions of the incubator were set as follows: temperature: 37° C., 5% CO2, humidity: ˜85%.
# Step 3: After 24 hours of incubation, the liquid in the culture plate was discarded, 100 μl of luciferase detection reagent was added to each test well, and then, the fluorescence intensity (Relative Luminescence Units, RLUs) in each well was read.
# In this test, the reference compound ursolic acid was used as an internal standard of a positive compound to verify the inhibitory effect of the test compound on RORγ in reporter cells of a specific batch. The tests for the reference compound and the test compound were performed simultaneously, and the reference compound and the test compound were thus exposed to the same test reagent and environment. The reference compound group containing 0.1% DMSO as solvent was used as an internal standard of a positive compound, so as to determine the effect of the solvent DMSO on the test results and calculate the percentage reduction in RORγ activity.
# The test data was managed and archived by Microsoft Excel, and mean±standard deviation (SD) of RLU, fold of reduction, inhibition rate, coefficient of variation (% CV) and Z factor were calculated. Coefficient of variation (% CV): 100×(SD/Ave. RLU); Fold of reduction for inverse agonist: [Ave. […]
# hERG potassium channel = hERG potassium channel (Homo sapiens, UniProt Q12809); assay: Inhibition test of hERG potassium channel (QPatch, CHO-hERG cells)
# Sequence of hERG potassium channel (Q12809 whole entry): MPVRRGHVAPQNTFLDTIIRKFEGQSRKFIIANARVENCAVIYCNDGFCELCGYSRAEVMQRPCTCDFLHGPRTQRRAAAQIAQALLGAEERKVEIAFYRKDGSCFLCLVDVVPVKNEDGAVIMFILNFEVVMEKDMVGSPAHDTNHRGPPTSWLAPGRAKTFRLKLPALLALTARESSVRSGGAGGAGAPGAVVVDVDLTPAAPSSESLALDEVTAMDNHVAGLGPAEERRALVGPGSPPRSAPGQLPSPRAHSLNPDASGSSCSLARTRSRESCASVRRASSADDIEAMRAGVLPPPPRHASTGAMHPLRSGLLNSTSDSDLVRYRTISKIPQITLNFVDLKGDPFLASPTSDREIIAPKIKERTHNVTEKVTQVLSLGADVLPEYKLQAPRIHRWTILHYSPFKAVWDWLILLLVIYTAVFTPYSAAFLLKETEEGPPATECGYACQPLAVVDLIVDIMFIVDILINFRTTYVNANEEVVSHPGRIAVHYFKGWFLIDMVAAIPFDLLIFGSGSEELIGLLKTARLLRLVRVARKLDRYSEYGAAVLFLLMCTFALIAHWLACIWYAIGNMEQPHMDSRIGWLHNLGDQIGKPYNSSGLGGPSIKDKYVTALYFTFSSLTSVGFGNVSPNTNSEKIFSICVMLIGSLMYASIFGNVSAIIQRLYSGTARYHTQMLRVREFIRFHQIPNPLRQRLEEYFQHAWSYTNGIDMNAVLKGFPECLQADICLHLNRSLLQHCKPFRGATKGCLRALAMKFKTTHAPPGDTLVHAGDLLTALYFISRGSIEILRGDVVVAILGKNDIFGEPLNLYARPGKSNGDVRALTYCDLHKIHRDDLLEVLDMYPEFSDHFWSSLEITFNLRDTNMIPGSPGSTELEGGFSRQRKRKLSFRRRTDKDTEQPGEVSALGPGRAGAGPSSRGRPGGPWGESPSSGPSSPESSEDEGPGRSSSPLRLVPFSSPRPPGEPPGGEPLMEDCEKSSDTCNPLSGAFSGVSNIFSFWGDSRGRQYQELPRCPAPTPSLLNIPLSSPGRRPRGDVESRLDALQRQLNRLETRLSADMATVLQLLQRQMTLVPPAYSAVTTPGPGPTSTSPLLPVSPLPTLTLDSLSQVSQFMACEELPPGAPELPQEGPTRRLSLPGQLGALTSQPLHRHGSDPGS
# Method: CHO-hERG cells (from Shanghai Institute of Materia Medica, Chinese Academy of Sciences) were cultured in a 175 cm^2 culture flask. When the cell density reached 60% to 80%, the culture medium was removed, the cells were washed once with 7 mL of PBS, and then 3 mL of Detachin was added for cell detachment. After complete cell detachment, 7 mL of culture medium were added for neutralization, the mixture was then centrifuged, the supernatant was aspirated, and another 5 mL of culture medium was added for re-suspension, so as to ensure that the cell density was 2×10^6/mL to 5×10^6/mL.
# The single-cell giga-seal and the formation of whole-cell mode were both completed automatically by a Q patch instrument. After a whole-cell recording mode was achieved, the cells were clamped at −80 mV, exposed to a front voltage of −50 mV for 50 ms prior to a depolarizing stimulus (5 s, +40 mV), and then repolarized to −50 mV for 5 s, followed by a recovery to −80 mV. This voltage stimulation was applied every 15 s and recorded for 2 minutes, and the extracellular fluid was then administered, followed by a record lasting for 5 minutes. Thereafter, the administration process was started. Starting from the lowest test concentration, the compounds were administered at each test concentration and the process lasted for 2.5 minutes. […] At least 3 cells (n≥3) were tested at each concentration.
# 20 mM stock solution of the compound was diluted with the extracellular fluid, and 5 μL of the 20 mM stock solution of the compound was taken, added to 2495 μL of the extracellular fluid, and diluted by 500 times to 40 μM. Thereafter, the resulting mixture was serially and successively diluted by 3 times in an extracellular fluid containing 0.2% DMSO, so as to obtain a final concentration to be tested.
# The experimental data was analyzed by XLFit software.
compound,measurement,setting,value
"CCS(=O)(=O)c1ccc(CNC(=O)c2cc3c(s2)C(C(C)C)N(C[C@H]2CC[C@H](C(F)(F)F)CC2)C3)nc1 (single isomer, unassigned) [Example 1]",EC50,RORγ; Specific value of the concentration required for 50% inhibition (EC50) of RORγ,15.8 nM
same,EC50,RORγ; Value of the concentration required for 50% Inhibition (EC50) of RORγ,< 100 nM
same,IC50,hERG potassium channel,> 40000 nM
same,"inhibition at 2.5 min, 40 μM",hERG potassium channel; human,26.3%
